Source: patent US11596692B1 (Incyte Corporation, priority 2018, dated 2023)
Where two headings read alike, the source gives them in different places.

Tests used:
[1] = tested on: IRF3 activation in PD-L1 high HEK293T STING reporter cell line; assay: IRF3 activation in HEK293T STING reporter cells, high PD-L1; type: cell-based, human; conditions: high PD-L1 cells, 20 hours; read-out: IRF Activation EC50 (nM), High PD-L1
Description: (§1) HEK293T STING reporter cell line was purchased from Invivogen and expressed low level of PD-L1. This cell line was then engineered at Incyte Research Institute to overexpress human PD-L1. Both PD-L1 high and PD-L1 low HEK293T cell lines were plated at 100,000 cells/100 μL/well in 10% fetal calf serum-containing DMEM culture medium in a 96-well flat bottom plate. Serial dilutions of PD-L1 small molecule-conjugated STING agonists were then added to the corresponding wells, and incubated for 20 hours at 37° C. In a competition study setting, 1 μM of a PD-L1 small molecule was added in the corresponding wells to compete with the binding of PD-L1 small molecule-conjugated STING agonists. At the end of the incubation, the culture supernatants were carefully removed from each well, and the amount of IRF3 activation was determined by adding Quanti-Blue substrate in accordance with the manufacturer's protocol.
(§2) 293T-Dual hSTING-R232 (ISG/KI-IFNb) cells that were generated from 293T-Dual Null (ISG/KI-IFNb) cells by stable transfection of the R232 isoform of human STING were purchased from Invivogen (Invivogen #293d-r232).
(§3) This cell line expresses an ISRE-inducible SEAP (secreted embryonic alkaline phosphatase) reporter construct, which monitors the activation of interferon regulatory factor (IRF) and its binding to ISRE (IFN-stimulated response elements). These reporter cells express low level of PD-L1. Human PD-L1 was then overexpressed in these cells through stable transfection.
(§4) These 293T-Dual hSTING-R232 reporter cells as well as293T-Dual hSTING-R232 reporter cells overexpressing huPD-L1 were treated with various concentrations of STING compounds for 20 hours. After 20 hours, interferon regulatory factor (IRF) activity was assessed by measuring SEAP levels in the supernatant using QUNTI-Blue. EC50 values were generated by curve fit in Prism software.

[2] = tested on: IRF3 activation in PD-L1 low HEK293T STING reporter cell line; assay: IRF3 activation in HEK293T STING reporter cells, low PD-L1; type: cell-based, human; conditions: 20 hours, read-out: IRF Activation EC50 (nM), Low PD-L1
Description: as §1, §2, §3, §4

PD-L1 = PD-L1 (Homo sapiens (Human), UniProt Q9NZQ7); assay: PD-L1 surface levels on HEK293T STING reporter cells, high PD-L1; type: cell-based
Description: To determine PD-L1 expression on HEK cells after treatment of PD-L1-small molecule conjugated STING agonists, cells were harvested at 20 hours post-treatment. Single cell suspensions were then stained with phycoerythrin-conjugated anti-PD-L1 antibody (BD Bioscience), and the PD-L1 expression were then analyzed by flow cytometry. Mean fluorescence intensity was used as the relative level of surface PD-L1 expression on cells (FIG. 1 and Table 6).
Also, cells were stained with PE-conjugated anti-human PD-L1 antibody to determine surface PD-L1 expression. Cell acquisition was performed on BD LSRFortessa X-20 (BD Biosciences). Data was analyzed using FlowJo software. IC50 values were calculated using Prism Software.

Sequence of PD-L1 (Q9NZQ7 19-290): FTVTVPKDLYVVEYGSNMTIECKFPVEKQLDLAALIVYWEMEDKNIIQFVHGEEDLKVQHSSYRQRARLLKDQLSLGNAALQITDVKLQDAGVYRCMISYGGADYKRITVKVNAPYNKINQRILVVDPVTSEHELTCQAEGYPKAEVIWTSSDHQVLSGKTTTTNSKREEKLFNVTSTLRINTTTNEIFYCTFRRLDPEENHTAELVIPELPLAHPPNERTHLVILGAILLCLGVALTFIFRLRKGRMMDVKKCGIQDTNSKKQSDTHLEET

Structure (SMILES): CCn1nc(C)cc1C(=O)Nc1nc2cc(C(N)=O)cc(OCCCNC(=O)[C@H](CC(=O)O)NC(=O)[C@H](CC(=O)O)NC(=O)[C@H](CCCNC(=N)N)NC(=O)[C@H](CC(=O)O)NC(=O)[C@H](CC(=O)O)NC(=O)[C@H](CC(=O)O)NC(=O)[C@H](CCCNC(=N)N)NC(=O)[C@H](CC(=O)O)NC(=O)CCCN3CCc4c(nc(C(=O)Nc5cccc(-c6cccc(NC(=O)c7nc8c(n7C)CCN(CCCC(=O)O)C8)c6Cl)c5Cl)n4C)C3)c2n1C/C=C/Cn1c2nc(-c3cc(C)nn3CC)ncc2c2cc(C(N)=O)cc(OC)c21 [Example 22]
- EC50 [1]: < 50 nM
- EC50 [2]: < 50 nM
- IC50 (PD-L1): < 50 nM

Structure (SMILES): CCn1nc(C)cc1C(=O)Nc1nc2cc(C(N)=O)cc(OC)c2n1C/C=C/Cn1c(NC(=O)c2cc(C)nn2CC)nc2cc(C(N)=O)cc(OCCCNC(=O)[C@H](CC(=O)O)NC(=O)[C@H](CC(=O)O)NC(=O)[C@H](CCCCN)NC(=O)[C@H](CC(=O)O)NC(=O)CCCN3CCc4c(nc(C(=O)Nc5cccc(-c6cccc(NC(=O)c7nc8c(n7C)CCN(CCCC(=O)O)C8)c6Cl)c5Cl)n4C)C3)c21 [Example 18]
- EC50 [1]: < 50 nM
- EC50 [2]: < 50 nM
- IC50 (PD-L1): < 50 nM

Structure (SMILES): CCn1nc(C)cc1C(=O)Nc1nc2cc(C(N)=O)cc(OC)c2n1C/C=C/Cn1c(NC(=O)c2cc(C)nn2CC)nc2cc(C(N)=O)cc(OCCCNC(=O)[C@H](CC(=O)O)NC(=O)[C@H](CC(=O)O)NC(=O)[C@H](CC(=O)O)NC(=O)[C@H](CC(=O)O)NC(=O)[C@H](CC(=O)O)NC(=O)[C@H](CC(=O)O)NC(=O)[C@H](CC(=O)O)NC(=O)CCCN3CCc4c(nc(C(=O)Nc5cccc(-c6cccc(NC(=O)c7nc8c(n7C)CCN(CCCC(=O)O)C8)c6Cl)c5Cl)n4C)C3)c21 [Example 14]
- EC50 [1]: < 50 nM
- EC50 [2]: 50 to 200 nM
- IC50 (PD-L1): < 50 nM

Structure (SMILES): CCn1nc(C)cc1C(=O)Nc1nc2cc(C(N)=O)cc(OC)c2n1C/C=C/Cn1c(NC(=O)c2cc(C)nn2CC)nc2cc(C(N)=O)cc(OCCCNC(=O)[C@H](CC(=O)O)NC(=O)[C@H](CC(=O)O)NC(=O)[C@H](CC(=O)O)NC(=O)[C@H](CC(=O)O)NC(=O)[C@H](CC(=O)O)NC(=O)CCCN3CCc4c(nc(C(=O)Nc5cccc(-c6cccc(NC(=O)c7nc8c(n7C)CCN(CCCC(=O)O)C8)c6Cl)c5Cl)n4C)C3)c21 [Example 13]
- EC50 [1]: < 50 nM
- EC50 [2]: 50 to 200 nM
- IC50 (PD-L1): < 50 nM

Structure (SMILES): CCn1nc(C)cc1C(=O)Nc1nc2cc(C(N)=O)cc(OC)c2n1C/C=C/Cn1c(NC(=O)c2cc(C)nn2CC)nc2cc(C(N)=O)cc(OCCCNC(=O)[C@H](CC(=O)O)NC(=O)[C@H](CC(=O)O)NC(=O)[C@H](CCCNC(=N)N)NC(=O)[C@H](CC(=O)O)NC(=O)[C@H](CC(=O)O)NC(=O)[C@H](CC(=O)O)NC(=O)[C@H](CCCNC(=N)N)NC(=O)[C@H](CC(=O)O)NC(=O)CCCN3CCc4c(nc(C(=O)Nc5cccc(-c6cccc(NC(=O)c7nc8c(n7C)CCN(CCCC(=O)O)C8)c6Cl)c5Cl)n4C)C3)c21 [Example 15]
- EC50 [1]: < 50 nM
- EC50 [2]: 50 to 200 nM
- IC50 (PD-L1): < 50 nM

Structure (SMILES): CCn1nc(C)cc1C(=O)Nc1nc2cc(C(N)=O)cc(OCCCNC(=O)CCNC(=O)OCc3ccc(NC(=O)[C@H](CCCNC(N)=O)NC(=O)[C@@H](NC(=O)Cn4cc(CCNC(=O)[C@H](CC(=O)O)NC(=O)[C@H](CC(=O)O)NC(=O)[C@H](CCCNC(=N)N)NC(=O)[C@H](CC(=O)O)NC(=O)CCCN5CCc6c(nc(C(=O)Nc7cccc(-c8cccc(NC(=O)c9nc%10c(n9C)CCN(CCCC(=O)O)C%10)c8Cl)c7Cl)n6C)C5)nn4)C(C)C)cc3)c2n1C/C=C/Cn1c2nc(-c3cc(C)nn3CC)ncc2c2cc(C(N)=O)cc(OC)c21 [Example 9]
- EC50 [1]: < 50 nM
- EC50 [2]: 200 to 1000 nM
- IC50 (PD-L1): 50 to 200 nM

Structure (SMILES): CCn1nc(C)cc1C(=O)Nc1nc2cc(C(N)=O)cc(OCCCNC(=O)OCCNC(=O)[C@H](CC(=O)O)NC(=O)[C@H](CC(=O)O)NC(=O)[C@H](CCCNC(=N)N)NC(=O)[C@H](CC(=O)O)NC(=O)CCCN3CCc4c(nc(C(=O)Nc5cccc(-c6cccc(NC(=O)c7nc8c(n7C)CCN(CCCC(=O)O)C8)c6Cl)c5Cl)n4C)C3)c2n1C/C=C/Cn1c2nc(-c3cc(C)nn3CC)ncc2c2cc(C(N)=O)cc(OC)c21 [Example 24]
- EC50 [1]: < 50 nM
- EC50 [2]: < 50 nM
- IC50 (PD-L1): < 50 nM

Structure (SMILES): CCn1nc(C)cc1C(=O)Nc1nc2cc(C(N)=O)cc(OC)c2n1C/C=C/Cn1c(NC(=O)c2cc(C)nn2CC)nc2cc(C(N)=O)cc(OCCCNC(=O)[C@H](CCC(=O)O)NC(=O)[C@H](CCC(=O)O)NC(=O)[C@H](CCCNC(=N)N)NC(=O)[C@H](CCC(=O)O)NC(=O)CCCN3CCc4c(nc(C(=O)Nc5cccc(-c6cccc(NC(=O)c7nc8c(n7C)CCN(CCCC(=O)O)C8)c6Cl)c5Cl)n4C)C3)c21 [Example 19]
- EC50 [1]: < 50 nM
- EC50 [2]: 50 to 200 nM
- IC50 (PD-L1): < 50 nM

Structure (SMILES): CCn1nc(C)cc1C(=O)Nc1nc2cc(C(N)=O)cc(OC)c2n1C/C=C/Cn1c(NC(=O)c2cc(C)nn2CC)nc2cc(C(N)=O)cc(OCCCNC(=O)[C@H](CC(=O)O)NC(=O)[C@H](CC(=O)O)NC(=O)CCCN3CCc4c(nc(C(=O)Nc5cccc(-c6cccc(NC(=O)c7nc8c(n7C)CCN(CCCC(=O)O)C8)c6Cl)c5Cl)n4C)C3)c21 [Example 10]
- EC50 [1]: < 50 nM
- EC50 [2]: 50 to 200 nM
- IC50 (PD-L1; high PD-L1 cells, 20 hours, read-out: PD-L1 Internalization IC50 (nM), High PD-L1): < 50 nM

Structure (SMILES): CCn1nc(C)cc1C(=O)Nc1nc2cc(C(N)=O)cc(OC)c2n1C/C=C/Cn1c(NC(=O)c2cc(C)nn2CC)nc2cc(C(N)=O)cc(OCCCNC(=O)[C@H](CC(=O)O)NC(=O)[C@H](CC(=O)O)NC(=O)[C@H](CC(=O)O)NC(=O)[C@H](CCCNC(=N)N)NC(=O)CCCN3CCc4c(nc(C(=O)Nc5cccc(-c6cccc(NC(=O)c7nc8c(n7C)CCN(CCCC(=O)O)C8)c6Cl)c5Cl)n4C)C3)c21 [Example 17]
- EC50 [1]: < 50 nM
- EC50 [2]: 50 to 200 nM
- IC50 (PD-L1): < 50 nM

Structure (SMILES): CCn1nc(C)cc1C(=O)Nc1nc2cc(C(N)=O)cc(OC)c2n1C/C=C/Cn1c(NC(=O)c2cc(C)nn2CC)nc2cc(C(N)=O)cc(OCCCNC(=O)[C@H](CC(=O)O)NC(=O)[C@H](CC(=O)O)NC(=O)[C@H](CCCNC(=N)N)NC(=O)[C@H](CC(=O)O)NC(=O)CCNC(=O)C3CCN(Cc4cc(C#N)c5oc(-c6cccc(-c7cccc(Nc8nc(C(F)F)nc9cc(CN%10CC[C@@H](O)C%10)cnc89)c7C)c6C)nc5c4)CC3)c21 [Example 8]
- EC50 [1]: < 50 nM
- EC50 [2]: 50 to 200 nM
- IC50 (PD-L1): 200 to 1000 nM

Structure (SMILES): CCn1nc(C)cc1C(=O)Nc1nc2cc(C(N)=O)cc(OC)c2n1C/C=C/Cn1c(NC(=O)c2cc(C)nn2CC)nc2cc(C(N)=O)cc(OCCCNC(=O)[C@H](CC(=O)O)NC(=O)[C@H](CCCNC(=N)N)NC(=O)[C@H](CC(=O)O)NC(=O)[C@H](CC(=O)O)NC(=O)CCCN3CCc4c(nc(C(=O)Nc5cccc(-c6cccc(NC(=O)c7nc8c(n7C)CCN(CCCC(=O)O)C8)c6Cl)c5Cl)n4C)C3)c21 [Example 16]
- EC50 [1]: < 50 nM
- EC50 [2]: < 50 nM
- IC50 (PD-L1): < 50 nM

Structure (SMILES): CCn1nc(C)cc1C(=O)Nc1nc2cc(C(N)=O)cc(OCCCNC(=O)[C@H](CC(=O)O)NC(=O)[C@H](CC(=O)O)NC(=O)[C@H](CCCNC(=N)N)NC(=O)[C@H](CC(=O)O)NC(=O)CCCN3CCc4c(nc(C(=O)Nc5cccc(-c6cccc(NC(=O)c7nc8c(n7C)CCN(CCCC(=O)O)C8)c6Cl)c5Cl)n4C)C3)c2n1C/C=C/Cn1c2nc(-c3cc(C)nn3CC)ncc2c2cc(C(N)=O)cc(OCCCOC)c21 [Example 23]
- EC50 [1]: < 50 nM
- EC50 [2]: 50 to 200 nM
- IC50 (PD-L1): < 50 nM

Structure (SMILES): CCn1nc(C)cc1C(=O)Nc1nc2cc(C(N)=O)cc(OC)c2n1C/C=C/Cn1c(NC(=O)c2cc(C)nn2CC)nc2cc(C(N)=O)cc(OCCCNC(=O)[C@@H](NC(=O)[C@H](CC(=O)O)NC(=O)[C@H](CC(=O)O)NC(=O)[C@H](CCCNC(=N)N)NC(=O)[C@H](CC(=O)O)NC(=O)CCCN3CCc4c(nc(C(=O)Nc5cccc(-c6cccc(NC(=O)c7nc8c(n7C)CCN(CCCC(=O)O)C8)c6Cl)c5Cl)n4C)C3)C(C)(C)C)c21 [Example 20]
- EC50 [1]: < 50 nM
- EC50 [2]: 50 to 200 nM
- IC50 (PD-L1): < 50 nM
